{"source": "patent US20220017468A1", "about": "“ISOQUINOLINE COMPOUNDS AND THEIR USE IN TREATING AhR IMBALANCE” (Dermavant Sciences GmbH, priority 2020, published 2022)", "key": {"AhR": {"target": "T1, AhR (Homo sapiens, UniProt P35869)", "T1 construct": "LS-180 cells stably transfected with a CYP1A1 promoter-linked beta-lactamase gene reporter construct; endogenous in cells; host or cells: CYP1A1-bla LS-180 cells", "T1 sequence (P35869 11-848)": "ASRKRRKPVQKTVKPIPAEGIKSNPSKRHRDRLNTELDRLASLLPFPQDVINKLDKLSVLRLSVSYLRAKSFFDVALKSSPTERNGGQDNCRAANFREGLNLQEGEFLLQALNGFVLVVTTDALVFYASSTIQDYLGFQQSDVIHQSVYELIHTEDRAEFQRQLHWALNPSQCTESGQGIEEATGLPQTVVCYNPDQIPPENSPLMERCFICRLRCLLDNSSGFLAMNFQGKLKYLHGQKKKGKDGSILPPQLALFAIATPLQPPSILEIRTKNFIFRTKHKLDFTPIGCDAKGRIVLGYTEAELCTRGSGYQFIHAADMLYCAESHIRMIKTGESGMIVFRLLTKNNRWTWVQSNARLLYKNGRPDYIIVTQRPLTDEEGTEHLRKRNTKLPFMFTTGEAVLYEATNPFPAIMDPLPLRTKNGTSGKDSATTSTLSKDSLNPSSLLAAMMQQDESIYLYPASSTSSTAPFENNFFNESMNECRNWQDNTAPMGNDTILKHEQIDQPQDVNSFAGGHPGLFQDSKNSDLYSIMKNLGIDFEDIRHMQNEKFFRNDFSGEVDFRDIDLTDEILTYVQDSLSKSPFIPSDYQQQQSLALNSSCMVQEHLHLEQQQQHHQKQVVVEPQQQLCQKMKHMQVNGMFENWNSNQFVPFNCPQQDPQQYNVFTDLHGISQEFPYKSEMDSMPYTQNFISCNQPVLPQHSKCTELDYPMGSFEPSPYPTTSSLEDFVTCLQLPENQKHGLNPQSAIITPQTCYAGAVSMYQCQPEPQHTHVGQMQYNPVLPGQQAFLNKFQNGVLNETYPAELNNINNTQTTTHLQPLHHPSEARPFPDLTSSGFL", "experiment": "CYP1A1-bla LS-180 AhR agonist assay", "assay_type": "cell-based", "method": "LS-180 cells stably transfected with a CYP1A1 promoter-linked beta-lactamase gene reporter construct (termed CYP1A1-bla LS-180 cells) were used to characterize the ability of compounds to activate AhR. In brief, AhR activity was measured using the LiveBLAzer assay kit which utilizes a beta lactamase (bla) reporter gene downstream of CYP1A1 promoter, which metabolizes its substrate to give a fluorescent readout. For the agonist assay, CYP1A1-bla LS-180 cells were treated with increasing concentrations of compound over a 100,000-fold concentration range.\nCYP1A1-bla LS-180 cells in exponential growth phase were washed twice with DPBS then seeded into 96-well microplates (50,000 cells/well) and allowed to adhere. […] The LiveBLAzer FRET B/G β-lactamase substrate was added in the final hour of incubation and resulting blue/green fluorescence was measured using a 96-well microplate reader.\nAhR activity was measured as a function of beta-lactamase expression using a fluorescence resonance energy transfer-based readout. TCDD and FICZ were used as controls to validate the system."}, "[1]": {"experiment": "pharmacokinetics after a single intravenous dose, rat", "assay_type": "in vivo", "details": "plasma, 1 mg/kg intravenous", "from_the_text": "(§1) Bioavailability was 46.5% and 41.0% for 30% Captisol and 30% Cavitron, respectively. 30% Captisol formulation was selected for the 7-day subcutaneous toxicity study in rat."}, "[2]": {"system": "primary human cell culture platforms", "experiment": "BioMAP Diversity Plus profiling", "assay_type": "cell-based"}, "[3]": {"experiment": "pharmacokinetics after a single intravenous dose, minipig", "assay_type": "in vivo", "details": "plasma, 1 mg/kg intravenous, mean", "from_the_text": "as §1"}, "[4]": {"system": "AhR pathway (CYP1A1 mRNA)", "experiment": "sRICA ex vivo human skin explant, CYP1A1 induction", "assay_type": "cell-based", "details": "1 μM or 10 μM in the baso-lateral media", "from_the_text": "A liquid-air interface skin explant culture with the in situ activation of immunocompetent cells, termed sRICA for skin-Resident Immune Cell Activation model was previously reported (Smith et al., (2016) PLoS One, 11(2)). In this assay, specific cytokine profiles of inflammatory skin diseases can be induced, including the Th17-type cytokines, IL17A, IL17F and IL22. Reduction of biomarkers in this assay indicates biological activity of the test compound.\nEx vivo human skin obtained from abdominoplasty surgery was processed to remove fat and dermatomed the tissue to ˜750 microns. Dermatomed skin was then cleaned in two serial rinses of 5-10 minutes each in room temperature PBS containing an antibiotic/antimycotic solution.\nSkin was treated as asceptic from this point on; all further manipulations were performed in a class II biosafety cabinet. […]\nThe harvested skin tissue were stored in RNAlater until use. […] RNA was diluted to a concentration of 23.6 ng/ul (total of 100 ng RNA), and was used as template in a 10 uL PCR volume using Applied Biosciences RNA-to-CT 1 Step kit (AB Catalog # 4392938) and the specific TaqMan probes foreach gene to be quantified. […]\nRNA levels of gene of interest's Relative Expression was calculated using the Delta Delta CT formula.\nRNA was isolated from the tissue harvested at 24 hr and 48 hr post stimulation and gene expression was assessed by quantitative PCR. […]"}}, "data": [{"smiles": "CC(C)c1c(O)cc(-c2cc3ccccc3cn2)cc1O", "values": [{"measurement": "EC50", "setting": "AhR", "value": 15.8, "unit": "nM"}, {"measurement": "AUC(0-inf)", "setting": "[1]; mean n = 3", "value": 95.7, "unit": "ng·h/mL"}, {"measurement": "half-life", "setting": "[1]; mean n = 3", "value": 41.4, "unit": "min"}, {"measurement": "clearance", "setting": "[1]; mean n = 3, read-out: CLp", "value": 175, "unit": "mL/min/kg"}, {"measurement": "Vd", "setting": "[1]; mean n = 3, read-out: Vss", "value": 6, "unit": "L/kg"}, {"measurement": "effect on B cell proliferation", "setting": "[2]; 1 μM, 330 nM, 110 nM and 37 nM", "value": "anti-proliferative to B cells"}, {"measurement": "increased biomarkers", "setting": "[2]; 1 μM, 330 nM, 110 nM and 37 nM", "value": "increased IL8, IL1α, sPGE2, ICAM-1, and E-selectin"}, {"measurement": "reduced biomarkers (M-CSF, sIL-17A, sIL-2, sIL-6, sIL-10, Eot3, sTNFα, MCP-1, VCAM-1, MIP-1)", "setting": "[2]; 1 μM, 330 nM, 110 nM and 37 nM", "value": "reductions in various cytokines/chemokines"}, {"measurement": "sIL-17 in BioMAP", "setting": "[2]; profiles overlaid", "value": "observed reduction in sIL-17"}, {"measurement": "AUC(0-inf)", "setting": "[3]", "value": 783, "unit": "ng·h/mL"}, {"measurement": "half-life", "setting": "[3]", "value": 61.2, "unit": "min"}, {"measurement": "clearance", "setting": "[3]; read-out: CLp", "value": 21.3, "unit": "mL/min/kg"}, {"measurement": "Vd", "setting": "[3]; read-out: Vss", "value": 1.5, "unit": "L/kg"}, {"measurement": "AhR pathway activation as measured by cyp1a1 gene induction", "setting": "[4]", "value": "confirmed"}]}]}
